We go through ten compounds from PubChem BioAssay AID328 (DTP/NCI, 2004).

This experiment concerns BDF1 mice, P388 leukemia ip, median survival T/C. Put plainly: NCI In Vivo Anticancer Drug Screen. Data for tumor model P388 Leukemia (intraperitoneal) in B6D2F1 (BDF1) mice. To be noted: endpoint: median survival time, higher = longer survival. In outline:
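Mice carrying the transplantable tumour receive compound or vehicle. Survival is followed in each arm, and the treated measure is divided by the vehicle measure.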

Where [1] appears, read: dose: 0.25 mg/kg/injection, schedule: Q01DX009 (ip), vehicle: saline.
Where [2] appears, read: dose: 25.0 mg/kg/injection, schedule: Q01DX009 (ip), vehicle: saline with Tween-80.
The mark [3] stands for this setting: dose: 50.0 mg/kg/injection, schedule: Q01DX009 (ip), vehicle: saline with Tween-80.
The mark [4] stands for this setting: dose: 100.0 mg/kg/injection, schedule: Q01DX009 (ip), vehicle: saline with Tween-80.
The mark [5] stands for this setting: dose: 50.0 mg/kg/injection, schedule: Q04DX003 (ip), vehicle: saline with Tween-80.
The mark [6] stands for this setting: dose: 100.0 mg/kg/injection, schedule: Q04DX003 (ip), vehicle: saline with Tween-80.

Molecules are shown by their SMILES. “And” between values parts separate entries of the source, which are not always exact repeats. Identical values can stand only once. Inconclusive results and toxic doses are left out.

As to `Nc1ncn(C2OC(CO)C(O)C2O)c(=O)n1` (stereo unspecified), the T/C by setting is: (dose: 0.16 mg/kg/injection, schedule: Q01DX009 (ip), vehicle: saline) 91 % of control; under setting [1], 116 % of control; (dose: 0.38 mg/kg/injection, schedule: Q01DX009 (ip), vehicle: saline) 150 % of control; (dose: 0.75 mg/kg/injection, schedule: Q01DX009 (ip), vehicle: saline) 181 % of control; (dose: 0.9 mg/kg/injection, schedule: Q01DX009 (ip), vehicle: saline) 210 % of control; (dose: 1.0 mg/kg/injection, schedule: Q01DX005 (ip), vehicle: saline) 166 % of control. For the same compound, the T/C was 195 % of control and 202 % of control (dose: 1.5 mg/kg/injection, schedule: Q01DX009 (ip), vehicle: saline); 235 % of control (dose: 1.9 mg/kg/injection, schedule: Q01DX009 (ip), vehicle: saline); 201 % of control (dose: 2.0 mg/kg/injection, schedule: Q01DX005 (ip), vehicle: saline); 235 % of control and 236 % of control and 216 % of control (dose: 2.2 mg/kg/injection, schedule: Q01DX009 (ip), vehicle: saline); 100 % of control (dose: 3.0 mg/kg/injection, schedule: Q01DX009 (ip), vehicle: saline); 260 % of control and 275 % of control and 280 % of control (dose: 3.3 mg/kg/injection, schedule: Q01DX009 (ip), vehicle: saline). The T/C is 204 % of control (dose: 4.0 mg/kg/injection, schedule: Q01DX005 (ip), vehicle: saline); 172 % of control (dose: 4.25 mg/kg/injection, schedule: Q04DX003 (ip), vehicle: saline); 254 % of control and 336 % of control and 365 % of control (dose: 5.0 mg/kg/injection, schedule: Q01DX009 (ip), vehicle: saline); 207 % of control (dose: 5.0 mg/kg/injection, schedule: Q04DX004 (ip), vehicle: saline); 104 % of control (dose: 6.0 mg/kg/injection, schedule: Q01DX009 (ip), vehicle: saline); 220 % of control (dose: 6.48 mg/kg/injection, schedule: Q04DX003 (ip), vehicle: saline). Besides, the T/C is 216 % of control (dose: 7.0 mg/kg/injection, schedule: Q04DX004 (ip), vehicle: saline); 100 % of control (dose: 7.5 mg/kg/injection, schedule: Q01DX009 (ip), vehicle: saline); 90 % of control (dose: 8.5 mg/kg/injection, schedule: Q01DX009 (ip), vehicle: saline); 112 % of control and 219 % of control (dose: 10.0 mg/kg/injection, schedule: Q04DX004 (ip), vehicle: saline); 177 % of control (dose: 10.8 mg/kg/injection, schedule: Q04DX003 (ip), vehicle: saline); 248 % of control (dose: 11.0 mg/kg/injection, schedule: Q04DX004 (ip), vehicle: saline). The T/C is 225 % of control (dose: 12.0 mg/kg/injection, schedule: Q04DX003 (ip), vehicle: saline); 226 % of control and 106 % of control (dose: 15.0 mg/kg/injection, schedule: Q04DX004 (ip), vehicle: saline); 272 % of control (dose: 16.0 mg/kg/injection, schedule: Q04DX004 (ip), vehicle: saline); 233 % of control (dose: 19.0 mg/kg/injection, schedule: Q04DX003 (ip), vehicle: saline); 165 % of control (dose: 20.0 mg/kg/injection, schedule: Q04DX004 (ip), vehicle: saline); 176 % of control (dose: 44.0 mg/kg/injection, schedule: Q01DX001 (ip), vehicle: saline). Besides, the T/C (dose: 49.0 mg/kg/injection, schedule: Q01DX001 (ip), vehicle: saline) was 170 % of control; the T/C (dose: 73.0 mg/kg/injection, schedule: Q01DX001 (ip), vehicle: saline) is 176 % of control and 182 % of control; the T/C (dose: 110.0 mg/kg/injection, schedule: Q01DX001 (ip), vehicle: saline) is 157 % of control and 190 % of control; the T/C (dose: 150.0 mg/kg/injection, schedule: Q01DX001 (ip), vehicle: saline) is 120 % of control.
In the case of `Clc1nc(NCc2ccccc2)c2cn[nH]c2n1`, the T/C by setting is: under setting [2], 91 % of control; under setting [3], 91 % of control; under setting [4], 91 % of control.
Turning to `COc1ccc(C2C(C#N)=C(N)NC(=O)C2C(N)=O)cc1` (stereo unspecified), the T/C was 92 % of control (dose: 50.0 mg/kg/injection, schedule: Q01DX005 (ip), vehicle: saline with Tween-80); 89 % of control (dose: 100.0 mg/kg/injection, schedule: Q01DX005 (ip), vehicle: saline with Tween-80); 92 % of control (dose: 200.0 mg/kg/injection, schedule: Q01DX005 (ip), vehicle: saline with Tween-80).
On to `CC(=O)C/C(C)=N/NC(=O)c1ccncc1`, for which, where the note is “dose: 150.0 mg/kg/injection, schedule: Q01DX009 (ip), vehicle: saline with Tween-80”, the T/C is 90 % of control.
As for `CC(=O)Oc1ccc(N2C(=O)C=CC2=O)cc1`, the T/C was 100 % of control (dose: 1.56 mg/kg/injection, schedule: Q04DX003 (ip), vehicle: Klucel (hydroxypropylcellulose) (HPC)); 104 % of control (dose: 3.12 mg/kg/injection, schedule: Q01DX009 (ip), vehicle: Klucel (hydroxypropylcellulose) (HPC)); 100 % of control (dose: 3.12 mg/kg/injection, schedule: Q04DX003 (ip), vehicle: Klucel (hydroxypropylcellulose) (HPC)); 104 % of control (dose: 6.25 mg/kg/injection, schedule: Q01DX009 (ip), vehicle: Klucel (hydroxypropylcellulose) (HPC)); 100 % of control (dose: 6.25 mg/kg/injection, schedule: Q04DX003 (ip), vehicle: Klucel (hydroxypropylcellulose) (HPC)); 90 % of control (dose: 9.2 mg/kg/injection, schedule: Q04DX003 (ip), vehicle: Klucel (hydroxypropylcellulose) (HPC)). Besides, the T/C is 109 % of control (dose: 12.5 mg/kg/injection, schedule: Q01DX009 (ip), vehicle: Klucel (hydroxypropylcellulose) (HPC)) and 95 % of control (dose: 14.0 mg/kg/injection, schedule: Q04DX003 (ip), vehicle: Klucel (hydroxypropylcellulose) (HPC)).
Regarding `CC(C)=CCC/C(C)=C\CCl`, the T/C reads like this: under setting [2], 105 % of control; (dose: 37.5 mg/kg/injection, schedule: Q01DX009 (ip), vehicle: saline with Tween-80) 99 % of control; under setting [3], 121 % of control; under setting [5], 107 % of control; (dose: 75.0 mg/kg/injection, schedule: Q01DX009 (ip), vehicle: saline with Tween-80) 122 % of control; under setting [4], 105 % of control. Further, under setting [6], the T/C was 111 % of control.
Regarding `C=CCN1c2ccccc2Sc2cnccc21`, the T/C is 109 % of control under setting [3]; 100 % of control and 104 % of control under setting [4]; 100 % of control (dose: 200.0 mg/kg/injection, schedule: Q01DX009 (ip), vehicle: saline with Tween-80).
For the compound `CN(C)CCNc1ccc(O)c2sc3ccccc3c(=O)c12`, the T/C (dose: 25.0 mg/kg/injection, schedule: Q04DX003 (ip), vehicle: saline with Tween-80) is 96 % of control; the T/C under setting [5] is 109 % of control; the T/C under setting [6] was 97 % of control.
On to `COc1ccc(CC2OCCC3c4ccccc4NC23)cc1OC` (stereo unspecified), for which the T/C runs as follows: under setting [6], 93 % of control; (dose: 200.0 mg/kg/injection, schedule: Q04DX003 (ip), vehicle: saline with Tween-80) 109 % of control; (dose: 400.0 mg/kg/injection, schedule: Q04DX003 (ip), vehicle: saline with Tween-80) 111 % of control.
On to `CCN1C=C/C(=C\C=C/c2cc[n+](CC)c3ccccc23)c2ccccc21`, for which the T/C runs as follows: (dose: 0.13 mg/kg/injection, schedule: Q01DX009 (ip), vehicle: saline) 113 % of control; under setting [1], 160 % of control; (dose: 0.27 mg/kg/injection, schedule: Q04DX003 (ip), vehicle: saline) 115 % of control; (dose: 0.4 mg/kg/injection, schedule: Q01DX009 (ip), vehicle: Klucel (hydroxypropylcellulose) (HPC)) 150 % of control; (dose: 0.4 mg/kg/injection, schedule: Q04DX003 (ip), vehicle: saline) 100 % of control and 115 % of control; (dose: 0.5 mg/kg/injection, schedule: Q01DX009 (ip), vehicle: saline) 160 % of control. For the same compound, the T/C is, setting by setting: (dose: 0.62 mg/kg/injection, schedule: Q01DX009 (ip), vehicle: Klucel (hydroxypropylcellulose) (HPC)) 154 % of control; (dose: 0.62 mg/kg/injection, schedule: Q04DX003 (ip), vehicle: saline) 100 % of control and 110 % of control; (dose: 0.66 mg/kg/injection, schedule: Q04DX003 (ip), vehicle: saline) 154 % of control; (dose: 0.82 mg/kg/injection, schedule: Q04DX003 (ip), vehicle: saline) 155 % of control; (dose: 44.0 micrograms/kg/injection, schedule: Q01DX009 (ip), vehicle: saline) 108 % of control.
